Test results published in the NIST ThermoML archive (doi:10.1016/j.fluid.2019.112283).

How the values were obtained:
[1] = excess molar enthalpy (molar enthalpy of mixing); xn = mol fraction of the nth substance listed; details: 298.15 K, 101 kPa, Liquid, Flow calorimetry
[2] = 298.15 K; 101.33 kPa; Liquid; Vibrating tube method

CCCCCCN [1-hexanamine] + CC(=O)N(C)C
[1]
Details	excess molar enthalpy [kcal/mol]
x2 = 0.0509	0.017
x2 = 0.1005	0.0337
x2 = 0.1507	0.0468
x2 = 0.1994	0.0583
x2 = 0.2488	0.0705
x2 = 0.3018	0.0808
x2 = 0.3484	0.0882
x2 = 0.398	0.0961
x2 = 0.4502	0.1
x2 = 0.5006	0.101
x2 = 0.5493	0.101
x2 = 0.6002	0.0994
x2 = 0.6492	0.0958
x2 = 0.7001	0.0896
x2 = 0.7491	0.0815
x2 = 0.7996	0.0707
x2 = 0.8513	0.0569
x2 = 0.9008	0.0409
x2 = 0.9503	0.0217

CC(=O)N(C)C [N,N-dimethylethanamide]
Details	mass density [kg/m3]
[2]	936.14

CCCCN [1-butanamine]
Details	mass density [kg/m3]
[2]	732.18

CCCCNCCCC [dibutylamine] + CN(C)C=O
[1]
Details	excess molar enthalpy [kcal/mol]
x2 = 0.0491	0.0449
x2 = 0.1014	0.0923
x2 = 0.1488	0.13
x2 = 0.2006	0.163
x2 = 0.2482	0.187
x2 = 0.3006	0.21
x2 = 0.351	0.228
x2 = 0.4021	0.247
x2 = 0.4497	0.259
x2 = 0.4982	0.266
x2 = 0.5505	0.267
x2 = 0.599	0.262
x2 = 0.65	0.253
x2 = 0.6997	0.239
x2 = 0.7506	0.22
x2 = 0.7994	0.195
x2 = 0.8503	0.16
x2 = 0.9	0.117
x2 = 0.9501	0.0645

CCCNCCC [dipropylamine] + CN(C)C=O
[1]
Details	excess molar enthalpy [kcal/mol]
x2 = 0.0358	0.021
x2 = 0.1002	0.0576
x2 = 0.1512	0.0839
x2 = 0.1984	0.107
x2 = 0.2504	0.126
x2 = 0.3016	0.142
x2 = 0.3483	0.157
x2 = 0.4005	0.166
x2 = 0.4495	0.176
x2 = 0.5005	0.179
x2 = 0.5505	0.18
x2 = 0.6012	0.178
x2 = 0.6587	0.169
x2 = 0.6997	0.161
x2 = 0.7518	0.147
x2 = 0.7983	0.13
x2 = 0.8485	0.105
x2 = 0.8991	0.076
x2 = 0.9504	0.0406

CCCCNCCCC [dibutylamine] + CC(=O)N(C)C
[1]
Details	excess molar enthalpy [kcal/mol]
x2 = 0.0499	0.0359
x2 = 0.0976	0.066
x2 = 0.151	0.0968
x2 = 0.1969	0.12
x2 = 0.2472	0.141
x2 = 0.3002	0.161
x2 = 0.3526	0.175
x2 = 0.3983	0.185
x2 = 0.4472	0.193
x2 = 0.5007	0.199
x2 = 0.5507	0.199
x2 = 0.6007	0.197
x2 = 0.6477	0.192
x2 = 0.6968	0.181
x2 = 0.7481	0.167
x2 = 0.8004	0.148
x2 = 0.8512	0.121
x2 = 0.9019	0.0887
x2 = 0.9507	0.0485

CCCCCCN [1-hexanamine] + CN(C)C=O
[1]
Details	excess molar enthalpy [kcal/mol]
x2 = 0.0514	0.0282
x2 = 0.1007	0.0523
x2 = 0.1516	0.076
x2 = 0.2009	0.0942
x2 = 0.2522	0.11
x2 = 0.3006	0.127
x2 = 0.3519	0.14
x2 = 0.4007	0.148
x2 = 0.4518	0.155
x2 = 0.5003	0.158
x2 = 0.5505	0.158
x2 = 0.5982	0.155
x2 = 0.6507	0.147
x2 = 0.7002	0.136
x2 = 0.7503	0.122
x2 = 0.8005	0.105
x2 = 0.8506	0.0846
x2 = 0.8995	0.0588
x2 = 0.9502	0.0308

CCCNCCC [dipropylamine]
Details	mass density [kg/m3]
[2]	733.37

CCCCN [1-butanamine] + CC(=O)N(C)C
[1]
Details	excess molar enthalpy [kcal/mol]
x2 = 0.0498	0.0115
x2 = 0.0992	0.0213
x2 = 0.1518	0.0294
x2 = 0.1985	0.0363
x2 = 0.2512	0.0394
x2 = 0.3004	0.0452
x2 = 0.3493	0.0483
x2 = 0.4015	0.0495
x2 = 0.4508	0.05
x2 = 0.5005	0.0497
x2 = 0.5509	0.048
x2 = 0.6005	0.0466
x2 = 0.7008	0.0382
x2 = 0.7995	0.0287
x2 = 0.8502	0.0225
x2 = 0.9002	0.0153
x2 = 0.9594	0.00645

CCCCN [1-butanamine] + CN(C)C=O
[1]
Details	excess molar enthalpy [kcal/mol]
x2 = 0.051	0.0213
x2 = 0.1009	0.0397
x2 = 0.1496	0.054
x2 = 0.1703	0.059
x2 = 0.2005	0.0667
x2 = 0.2498	0.0765
x2 = 0.3007	0.0841
x2 = 0.3496	0.0891
x2 = 0.4008	0.0935
x2 = 0.4508	0.0939
x2 = 0.5008	0.0918
x2 = 0.5463	0.0894
x2 = 0.6008	0.0848
x2 = 0.6463	0.0779
x2 = 0.7011	0.0691
x2 = 0.7559	0.0586
x2 = 0.8005	0.0497
x2 = 0.8495	0.0378
x2 = 0.9003	0.0253
x2 = 0.9519	0.0131

CCCCNCCCC [dibutylamine]
Details	mass density [kg/m3]
[2]	755.7

CN(C)C=O [dimethylformamide]
Details	mass density [kg/m3]
[2]	943.78

CCCCCCN [1-hexanamine]
Details	mass density [kg/m3]
[2]	760.16

CCCNCCC [dipropylamine] + CC(=O)N(C)C
[1]
Details	excess molar enthalpy [kcal/mol]
x2 = 0.0597	0.0234
x2 = 0.0996	0.0397
x2 = 0.1496	0.0562
x2 = 0.2011	0.0717
x2 = 0.2497	0.0856
x2 = 0.3009	0.0954
x2 = 0.3462	0.104
x2 = 0.4062	0.114
x2 = 0.4491	0.118
x2 = 0.5035	0.123
x2 = 0.5497	0.124
x2 = 0.5972	0.122
x2 = 0.6495	0.118
x2 = 0.6975	0.113
x2 = 0.7478	0.104
x2 = 0.8009	0.092
x2 = 0.8504	0.076
x2 = 0.8989	0.0571
x2 = 0.9368	0.0373
x2 = 0.9507	0.0301
